Assay results: ChEMBL document CHEMBL4396934, “Novel α,β-unsaturated hydroxamic acid derivatives overcome cisplatin resistance” (Bioorg Med Chem, 2019)

Tests used:
Histone deacetylase [1] = assay: Inhibition of HDAC in human A2780 cells using Boc-Lys(epsilon-Ac)-AMC as substrate preincubated for 18 hrs followed by substrate addition and further incubation for 3 hrs by microplate reader based fluorescence assay; type: cell-based
CAL-27 = assay: Antiproliferative activity against human CAL27 cells after 72 hrs by microplate reader based MTT assay; type: functional, cell-based; details: CAL-27, 72 h
Histone deacetylase [2] = assay: Inhibition of HDAC in human CAL27 cells using Boc-Lys(epsilon-Ac)-AMC as substrate preincubated for 18 hrs followed by substrate addition and further incubation for 3 hrs by microplate reader based fluorescence assay; type: cell-based
A2780 = assay: Antiproliferative activity against human A2780 cells after 72 hrs by microplate reader based MTT assay; type: functional, cell-based; details: A2780, 72 h

**Q.** With `Cc1cc(C)c(NC(=O)NOCc2ccc(/C=C/C(=O)NO)cc2)c(C)c1` as the compound, how does the IC50 (Histone deacetylase [1]) read?
**A.** Its IC50 is 2.29 µM.

**Q.** And the IC50 (CAL-27)?
**A.** The IC50 was 3.49 µM.

**Q.** What about the IC50 (Histone deacetylase [2]) of the same compound?
**A.** The IC50 was 4.21 µM.

**Q.** What about the IC50 (A2780) of the same compound?
**A.** The IC50 was 3.39 µM.

**Q.** Which IC50 (Histone deacetylase [1]) does the source give for `O=C(/C=C/c1ccc(CONC(=O)c2ccc3ccccc3c2)cc1)NO` here?
**A.** The IC50 was 1.92 µM.

**Q.** And the IC50 (CAL-27)?
**A.** The IC50 was 3.65 µM.

**Q.** And the IC50 (Histone deacetylase [2])?
**A.** The IC50 was 2.83 µM.

**Q.** What about the IC50 (A2780) of the same compound?
**A.** The IC50 was 3.11 µM.

**Q.** `O=C(/C=C/c1ccc(CONC(=O)c2nccc3ccccc23)cc1)NO` was tested. Which IC50 (Histone deacetylase [1]) did it give?
**A.** The IC50 was 1.98 µM.

**Q.** And the IC50 (CAL-27)?
**A.** Its IC50 is 4.21 µM.

**Q.** And the IC50 (Histone deacetylase [2])?
**A.** The IC50 was 4.48 µM.

**Q.** What about the IC50 (A2780) of the same compound?
**A.** Its IC50 is 3.15 µM.

**Q.** With `O=C(/C=C/c1ccc(CONC(=O)Nc2ccccc2-c2ccccc2)cc1)NO` as the compound, how does the IC50 (Histone deacetylase [1]) read?
**A.** Its IC50 is 4.03 µM.

**Q.** And the IC50 (CAL-27)?
**A.** The IC50 was 2.62 µM.

**Q.** What about the IC50 (Histone deacetylase [2]) of the same compound?
**A.** Its IC50 is 5.65 µM.

**Q.** And the IC50 (A2780)?
**A.** Its IC50 is 3.57 µM.

**Q.** How did the IC50 (Histone deacetylase [1]) turn out when `COc1cc(C(=O)NOCc2ccc(/C=C/C(=O)NO)cc2)cc(OC)c1OC` was run?
**A.** The IC50 was 6.85 µM.

**Q.** What about the IC50 (CAL-27) of the same compound?
**A.** The IC50 was 8.94 µM.

**Q.** And the IC50 (Histone deacetylase [2])?
**A.** Its IC50 is 3.14 µM.

**Q.** And the IC50 (A2780)?
**A.** The IC50 was 38.6 µM.

**Q.** With `O=C(/C=C/c1ccc(CONC(=O)Nc2ccccc2)cc1)NO` as the compound, how does the IC50 (Histone deacetylase [1]) read?
**A.** The IC50 was 190 µM.

**Q.** What about the IC50 (CAL-27) of the same compound?
**A.** The IC50 was 62 µM.

**Q.** And the IC50 (Histone deacetylase [2])?
**A.** The IC50 was 144 µM.

**Q.** What about the IC50 (A2780) of the same compound?
**A.** Its IC50 is 112 µM.

**Q.** For `CCCCOc1ccc(C(=O)NOCc2ccc(/C=C/C(=O)NO)cc2)cc1`, which IC50 (Histone deacetylase [1]) is on record?
**A.** Its IC50 is 7.6 µM.

**Q.** What about the IC50 (CAL-27) of the same compound?
**A.** The IC50 was 4.55 µM.

**Q.** And the IC50 (Histone deacetylase [2])?
**A.** Its IC50 is 3 µM.

**Q.** What about the IC50 (A2780) of the same compound?
**A.** The IC50 was 1.7 µM.

**Q.** `O=C(/C=C/c1ccc(CONC(=O)c2csc(-c3ccccc3)n2)cc1)NO` was tested. Which IC50 (Histone deacetylase [1]) did it give?
**A.** Its IC50 is 19.2 µM.

**Q.** And the IC50 (CAL-27)?
**A.** Its IC50 is 16.3 µM.

**Q.** And the IC50 (Histone deacetylase [2])?
**A.** The IC50 was 11.6 µM.

**Q.** What about the IC50 (A2780) of the same compound?
**A.** The IC50 was 2.02 µM.

**Q.** Which results are given for `Cc1cc(C)cc(C(=O)NOCc2ccc(/C=C/C(=O)NO)cc2)c1`?
**A.** IC50 (Histone deacetylase [1]): 0.9 µM; IC50 (CAL-27): 2.24 µM; IC50 (Histone deacetylase [2]): 1.09 µM; IC50 (A2780): 2.33 µM
